Experiment in the first series: not given
Conditions: Table 1; cited from earlier work.
As to `FC(F)(F)/C=C(/Br)C(F)(F)F` [(E)-2-bromo-1,1,1,4,4,4-hexafluoro-2-butene], the BP is listed as 45.1 C.

Take `FC(F)(F)COCC(F)(F)F` [bis(2,2,2-trifluoroethyl)ether]: the BP was 62.5 C.

`FC(F)OC(F)(F)C(F)Cl` (stereo not drawn) [2-chloro-1,1,2-trifluoroethyl difluoromethyl ether, reference compound]: the BP was 56.7 C.

`FC(Br)=C(C(F)(F)F)C(F)(F)F` [1-bromo-1,3,3,3-tetrafluoro-2-(trifluoromethyl)-1-propene]: the BP is 51.9 C.

`COC(=O)C(F)(F)C(F)(F)F` [methyl pentafluoropropanoate]: the BP is recorded as 59.5 C.

As to `FC(F)(F)C(=CBr)C(F)(F)F` [1-bromo-2-(trifluoromethyl)-3,3,3-trifluoropropene], the BP is recorded as 49.3 C.

Consider `FC(F)(F)O/C=C/OC(F)(F)Br` [(E)-1-(bromodifluoromethoxy)-2-(trifluoromethoxy)ethene], for which the BP is given as 76.5 C.

For `O=C(CC(=O)C(F)(F)F)C(F)(F)F` [1,1,1,5,5,5-hexafluoro-2,4-pentanedione], the BP is recorded as 69.9 C.

As for `FC=CC(F)(F)Br` [3-bromo-1,3,3-trifluoropropene], the BP is 41.5 C.

`FC(F)=C(F)OC(F)(F)C(F)(F)Br` [2-bromo-1,1,2,2-tetrafluoroethoxy-trifluoroethene]: the BP is on record as 81.9 C.

For the molecule `FC(OC(F)(F)C(F)(F)C(F)(F)F)C(F)(F)F` (stereo not drawn) [heptafluoropropyl 1,2,2,2-tetrafluoroethyl ether], the BP was 41.0 C.

Take `CCOC(F)(F)C(F)Cl` (stereo not drawn) [2-chloro-1,1,2-trifluoroethyl ethyl ether]: the BP is on record as 88.9 C.

Still in this series, the particulars now being: cited from earlier work.
As to `FC(Cl)(Cl)Cl` [CFC-11, trichlorofluoromethane], the boiling point was 47.6 °C.

Experiment in another series: not given
Conditions: solubility parameter, Table 1; cited from earlier work.
Regarding `FC(F)(F)/C=C(/Br)C(F)(F)F` [(E)-2-bromo-1,1,1,4,4,4-hexafluoro-2-butene], the SP is recorded as 7.06 (cal/cm^3)^1/2.

Turning to `FC(F)(F)COCC(F)(F)F` [bis(2,2,2-trifluoroethyl)ether], the SP is 7.32 (cal/cm^3)^1/2.

As for `FC(F)OC(F)(F)C(F)Cl` (stereo not drawn) [2-chloro-1,1,2-trifluoroethyl difluoromethyl ether, reference compound], the SP is 7.71 (cal/cm^3)^1/2.

`FC(Br)=C(C(F)(F)F)C(F)(F)F` [1-bromo-1,3,3,3-tetrafluoro-2-(trifluoromethyl)-1-propene]: the SP is reported as 6.78 (cal/cm^3)^1/2.

Take `COC(=O)C(F)(F)C(F)(F)F` [methyl pentafluoropropanoate]: the SP is 7.77 (cal/cm^3)^1/2.

Take `FC(F)(F)C(=CBr)C(F)(F)F` [1-bromo-2-(trifluoromethyl)-3,3,3-trifluoropropene]: the SP is given as 6.95 (cal/cm^3)^1/2.

Consider `FC(F)(F)O/C=C/OC(F)(F)Br` [(E)-1-(bromodifluoromethoxy)-2-(trifluoromethoxy)ethene], for which the SP is listed as 7.79 (cal/cm^3)^1/2.

As to `O=C(CC(=O)C(F)(F)F)C(F)(F)F` [1,1,1,5,5,5-hexafluoro-2,4-pentanedione], the SP is reported as 6.90 (cal/cm^3)^1/2.

As for `FC=CC(F)(F)Br` [3-bromo-1,3,3-trifluoropropene], the SP is 7.73 (cal/cm^3)^1/2.

`FC(F)=C(F)OC(F)(F)C(F)(F)Br` [2-bromo-1,1,2,2-tetrafluoroethoxy-trifluoroethene]: the SP is given as 7.30 (cal/cm^3)^1/2.

As for `FC(OC(F)(F)C(F)(F)C(F)(F)F)C(F)(F)F` (stereo not drawn) [heptafluoropropyl 1,2,2,2-tetrafluoroethyl ether], the SP is on record as 6.62 (cal/cm^3)^1/2.

For the molecule `CCOC(F)(F)C(F)Cl` (stereo not drawn) [2-chloro-1,1,2-trifluoroethyl ethyl ether], the SP is reported as 7.50 (cal/cm^3)^1/2.

Experiment in the next series: not given
Conditions: pure solvent; cited from earlier work.
`CC(C)O` [isopropyl alcohol]: the flash point is given as 54 ° F.

`C=C(C)[C@H]1CC=C(C)CC1` [d-limonene]: the flash point entry is “around 120 ° F”.

`CCO` [Ethanol, ethanol]: the flash point was 55 ° F.

For `COCC(C)OCC(C)OC` (stereo not drawn) [dipropyleneglycol dimethylether], the flash point is 149 ° F.

As for `CC(C)CBr` [1-bromo-2-methylpropane], the flash point was 11 °C.

The next series can be described thus: Test 2 - Moisture retention (Karl Fischer titration). The class given is physicochemical. Conditions: moisture in organic layer after 1 g water added to 5 g solvent. As to the method: Each solvent (5 g) was put into a small vial and the individual samples were titrated with a Karl Fischer titration machine to evaluate how much moisture was contained in each. De-ionized water (1 g) was then added to each vial, which ensured that each sample was saturated with moisture. The samples were then agitated and allowed to phase separate. Karl Fischer analysis of the organic layer of each solvent was performed after phase separation was complete.
The difference between the saturated moisture percent and the starting sample moisture percent is the amount that was absorbed by the solvent.
As for `FC(Cl)(Cl)Cl` [CFC-11, trichlorofluoromethane], the Saturated % worked out at 0.007%.

The same series, now with this note: moisture in solvent before water addition.
`FC(Cl)(Cl)Cl` [CFC-11, trichlorofluoromethane] yielded a Starting % of 0.000%.

A short description of a further series: Test 4 - Oil retention (oil saturation point). The class given is physicochemical. Conditions: oil added to 4.5 g solvent until phase separation. As for the experimental part:
An oil absorption test was performed on Mixtures A, B, C, D and the three comparative solvents to see if there was a saturation point associated with any of the solvents. A 4.5 g sample of each solvent was put into a vial and oil was added to each until a phase separation or other noticeable fluid property change took place. […]. Rx-11 and oil phase separated after 0.45 g, or 10 mass % of oil were added.
Regarding `FC(Cl)(Cl)Cl` [CFC-11, trichlorofluoromethane], the “saturation point for oil” value is listed as “no saturation point”.

Experiment in the next series: not given
Settings: not given
An excerpt:
Parameters such as the lethal dose 50 (LD50), lethal concentration 50 (LC50), cardiac sensitization, skin irritation, and mutagenicity (e.g., via the Ames test) can be used as toxicity metrics. The LDn or LCn abbreviations, where n is the percent lethality, are used for the dose of a toxicant lethal to n % of a test population. […] Cardiac sensitization is a measure of the ability of a compound to cause cardiac arrhythmia under stress.
The property modification components are chosen from a list of potential replacement solvents. These compounds included halogenated compounds such as halogenated acetates, alcohols, alkanes, cycloalkanes, alkenes, cycloalkenes, amines, anhydrides, aromatics, carbonyls, diones, esters, ethers, heterocyclics and ketones.
`FC(F)OC(F)(F)C(F)Cl` (stereo not drawn) [2-chloro-1,1,2-trifluoroethyl difluoromethyl ether, reference compound] registered a CS/CS113 of 35.5.

Molecule `O=C(CC(=O)C(F)(F)F)C(F)(F)F` [1,1,1,5,5,5-hexafluoro-2,4-pentanedione] returned a CS/CS113 of 140.5.

The same series, now with this note: cardiac sensitization relative to CFC-113.
Take `FC(F)(F)/C=C(/Br)C(F)(F)F` [(E)-2-bromo-1,1,1,4,4,4-hexafluoro-2-butene]: the CS/CS113 is 42.7.

With `FC(F)(F)COCC(F)(F)F` [bis(2,2,2-trifluoroethyl)ether], the CS/CS113 came to 109.2.

As to `FC(Br)=C(C(F)(F)F)C(F)(F)F` [1-bromo-1,3,3,3-tetrafluoro-2-(trifluoromethyl)-1-propene], the CS/CS113 was 71.9.

In the case of `COC(=O)C(F)(F)C(F)(F)F` [methyl pentafluoropropanoate], the CS/CS113 is 27.0.

As for `FC(F)(F)C(=CBr)C(F)(F)F` [1-bromo-2-(trifluoromethyl)-3,3,3-trifluoropropene], the CS/CS113 is 49.4.

Regarding `FC(F)(F)O/C=C/OC(F)(F)Br` [(E)-1-(bromodifluoromethoxy)-2-(trifluoromethoxy)ethene], the CS/CS113 is given as 144.9.

With `FC=CC(F)(F)Br` [3-bromo-1,3,3-trifluoropropene], the CS/CS113 was 12.9.

Turning to `FC(F)=C(F)OC(F)(F)C(F)(F)Br` [2-bromo-1,1,2,2-tetrafluoroethoxy-trifluoroethene], the CS/CS113 came to 33.0.

For `FC(OC(F)(F)C(F)(F)C(F)(F)F)C(F)(F)F` (stereo not drawn) [heptafluoropropyl 1,2,2,2-tetrafluoroethyl ether], the CS/CS113 is 195.7.

As to `CCOC(F)(F)C(F)Cl` (stereo not drawn) [2-chloro-1,1,2-trifluoroethyl ethyl ether], the CS/CS113 was 15.0.

The nature of the next series: Test 3 - Acid retention (titration before and after concentrated HCl). The format is physicochemical. As to conditions: after concentrated HCl addition. As for the experimental part:
In order to measure the ability of each solvent to absorb acid, a titration of each solvent before and after concentrated HCl addition was performed. The difference between how much titrant was needed to neutralize the solvent after the addition of acid and the amount of titrant needed to neutralize the initial solvent was a simple way to determine how much acid was absorbed by each solvent. Mixture A advantageously absorbed more mineral acid than any of the three comparative solvents.
`FC(Cl)(Cl)Cl` [CFC-11, trichlorofluoromethane]: the “Acid Number after acid” value is on record as 18 mg/L.

Staying with this series, now noted: before concentrated HCl addition.
For the molecule `FC(Cl)(Cl)Cl` [CFC-11, trichlorofluoromethane], the “Acid Number before acid” value was 9 mg/L.

The series is the same for the next values; noted with them: difference after minus before acid.
Take `FC(Cl)(Cl)Cl` [CFC-11, trichlorofluoromethane]: the “Acid Absorbed” value stood at 9 mg/L.
